For test [1], the system named is HCC827 cells. In words: Cell counting by nuclear fluorescent staining (Hoechst33342). Format: cell-based. As for the experimental part: Several plates were seeded, as for each time point of cell counting one plate was fixed and stained for analysis. […] Cell cultivation was continued until time of fixation and analysis for each plate. For extended time-points, medium and drugs were replenished twice weekly.
At the given time plates were washed 3 times with PBS and cells fixed with 80 μl 4% PFA for 10 min, RT. After 3 wash steps with PBS cells were stained with 10 μg/ml Hoechst33342 (Thermo Scientific H12492) in 100 μl PBS for 2 h, RT, dark. After 3× PBS washing-steps, Hoechst33342 signals were acquired on in an automated imaging mode using a Zeiss Apotome with motorized X/Y stage and a 5× objective. Image analysis and determination of Hoechst33342 spots (nuclei) was done using ImageJ. Number of nuclei was plotted as function of time using GraphPad Prism.

The next test has as its system NCI-H1975 cells. In words: Label-free determination of cell proliferation (CELIGO). The test is classed as cell-based.
Test [2] concerns HCC827 cells. The test is described as above. The test is classed as cell-based. The conditions noted are these: 21 days (FIG. 9).
The next test concerns NCI-H1975 xenografts. In words: NCI-H1975 xenograft tumor growth. Format: in vivo, NMRI-Nude mice. As for the experimental part: Tumor volume was measured using a manual caliper two to three times a week. The tumor volume was calculated using the formula: lager tumor diameter x square of the smaller tumor diameter divided by 2. Based on a linear fit of the mean tumor volumes the slopes of the curves were compared by regression analysis (two-tailed).
The response was determined by comparing tumor volume change at time t to its baseline: % tumor volume change=ΔVolt=100%×((Vt−Vinitial)/Vinitial). The Best Response was the minimum value of ΔVolt for t≥10 d. For each time t, the average of ΔVolt from t=0 to t was also calculated. The BestAvgResponse is defined as the minimum value of this average for t≥10 d. This metric captures a combination of speed, strength and durability of response into a single value. […] Mice that were sacrificed because of an adverse event before they had completed 14 d on trial were removed from the data set.
The response was determined by comparing tumor volume change at time t to its baseline: % tumor volume change=ΔVolt=100%×((Vt−Vinitial)/Vinitial). The Best Response was the minimum value of ΔVolt for t≥6 d. For each time t, the average of ΔVolt from t=0 to t was also calculated. The BestAvgResponse is defined as the minimum value of this average for t≥10 d. This metric captures a combination of speed, strength and durability of response into a single value. […] Mice that were sacrificed because of an adverse event before they had completed 14 d on trial were removed from the data set.

Another test deals with T1, BRD1 (Homo sapiens, UniProt O95696).
T1 construct: T7 phage strains displaying bromodomains were grown in parallel; purchased DiscoverX; host or cells: T7 phage in E. coli host derived from BL21
Put plainly: BROMOscan BromoKdMAX. The test is classed as binding. As for the experimental part:
(§1) A BromoKdMAX was performed at DiscoverX.
(§2) The assay principle is the following: BROMOscan™ is a novel industry leading platform for identifying small molecule bromodomain inhibitors. Based on proven KINOMEscan™ technology, BRO-MOscan™ employs a proprietary ligand binding site-directed competition assay to quantitatively measure interactions between test compounds and bromodomains. This robust and reliable assay panel is suitable for high throughput screening and delivers quantitative ligand binding data to facilitate the identification and optimization of potent and selective small molecule bromodomain inhibitors.
(§3) The assay was conducted as follows: For the Bromodomain assays, T7 phage strains displaying bromodomains were grown in parallel in 24-well blocks in an E. coli host derived from the BL21 strain. E. coli were grown to log-phase and infected with T7 phage from a frozen stock (multiplicity of infection=0.4) and incubated with shaking at 32° C. until lysis (90-150 minutes). The lysates were centrifuged (5,000×g) and filtered (0.2 μm) to remove cell debris. […] The liganded beads were blocked with excess biotin and washed with blocking buffer (SeaBlock (Pierce), 1% BSA, 0.05% Tween 20, 1 mM DTT) to remove unbound ligand and to reduce non-specific phage binding. […] Test compounds were prepared as 1000× stocks in 100% DMSO. Kds were determined using an 11-point 3-fold compound dilution series with one DMSO control point. […] The compounds were then diluted directly into the assays such that the final concentration of DMSO was 0.09%. All reactions performed in polypropylene 384-well plates. Each was a final volume of 0.02 ml. […] The bromodomain concentration in the eluates was measured by qPCR.

A further test has as its target T2, SMARCA4 (Homo sapiens, UniProt P51532).
T2 construct: T7 phage strains displaying bromodomains were grown in parallel; purchased DiscoverX (BROMOscan / BromoKdMAX service); host or cells: T7 phage in E. coli host derived from BL21
Put plainly: BROMOscan BromoKdMAX. Format: binding. Here is the method: as §1, §2, §3

The next test deals with T3, BAZ2B (Homo sapiens, UniProt Q9UIF8).
T3 construct: T7 phage strains displaying bromodomains were grown in parallel; purchased DiscoverX; host or cells: T7 phage in E. coli host derived from BL21
In words: BROMOscan BromoKdMAX. Format: binding. Here is the method: as §1, §2, §3

Another test has as its target T4, BAZ2A (Homo sapiens, UniProt Q9UIF9).
T4 construct: T7 phage strains displaying bromodomains were grown in parallel; purchased DiscoverX; host or cells: T7 phage in E. coli host derived from BL21
In words: BROMOscan BromoKdMAX. Format: binding. Here is the method: as §1, §2, §3

Another test concerns the target T5, GCN5L2 (Homo sapiens, UniProt Q92830).
T5 construct: T7 phage strains displaying bromodomains were grown in parallel; purchased DiscoverX (BROMOscan / BromoKdMAX service); host or cells: T7 phage in E. coli host derived from BL21
Put plainly: BROMOscan BromoKdMAX. The test is classed as binding. Here is the method:
as §1, §2, §3

In the next test the target is T6, TRIM33(PHD, Bromo.) (Homo sapiens, UniProt Q9UPN9).
T6 construct: TRIM33(PHD, Bromo.)
Put plainly: BROMOscan BromoKdMAX. The test is classed as binding. As for the experimental part: as §1, §2, §3

The next test has as its target T7, SMARCA2 (Homo sapiens, UniProt P51531).
T7 construct: T7 phage strains displaying bromodomains were grown in parallel; purchased DiscoverX (BROMOscan / BromoKdMAX service); host or cells: T7 phage in E. coli host derived from BL21
In words: BROMOscan BromoKdMAX. Format: binding. As for the experimental part:
as §1, §2, §3

The next test addresses T8, FALZ (Homo sapiens, UniProt Q12830).
T8 construct: T7 phage strains displaying bromodomains were grown in parallel; purchased DiscoverX (BROMOscan / BromoKdMAX service); host or cells: T7 phage in E. coli host derived from BL21
In words: BROMOscan BromoKdMAX. The test is classed as binding. Here is the method:
as §1, §2, §3

The target of the next test is T9, ATAD2B (Homo sapiens, UniProt Q9ULI0).
T9 construct: T7 phage strains displaying bromodomains were grown in parallel; purchased DiscoverX; host or cells: T7 phage in E. coli host derived from BL21
In words: BROMOscan BromoKdMAX. The test is classed as binding. Here is the method: as §1, §2, §3

The target in another test is T10, ATAD2A (Homo sapiens, UniProt Q6PL18).
T10 construct: T7 phage strains displaying bromodomains were grown in parallel; purchased DiscoverX; host or cells: T7 phage in E. coli host derived from BL21
In words: BROMOscan BromoKdMAX. Format: binding. Here is the method:
as §1, §2, §3

The next test has as its target T11, PBRM1(5) (Homo sapiens, UniProt Q86U86).
T11 construct: T7 phage strains displaying bromodomains were grown in parallel; purchased DiscoverX (BROMOscan / BromoKdMAX service); host or cells: T7 phage in E. coli host derived from BL21
Put plainly: BROMOscan BromoKdMAX. Format: binding. Here is the method: as §1, §2, §3

The target in another test is T12, PBRM1(2) (Homo sapiens, UniProt Q86U86).
T12 construct: T7 phage strains displaying bromodomains were grown in parallel; purchased DiscoverX (BROMOscan / BromoKdMAX service); host or cells: T7 phage in E. coli host derived from BL21
Put plainly: BROMOscan BromoKdMAX. Format: binding. Here is the method:
as §1, §2, §3

A further test concerns the target T13, BRPF3 (Homo sapiens, UniProt Q9ULD4).
T13 construct: T7 phage strains displaying bromodomains were grown in parallel; purchased DiscoverX; host or cells: T7 phage in E. coli host derived from BL21
In words: BROMOscan BromoKdMAX. The test is classed as binding. As for the experimental part: as §1, §2, §3

SMILES strings stand for the structures. Bounds are passed on as bounds.

T4 sequence (Q9UIF9 1793-1897 limits assumed): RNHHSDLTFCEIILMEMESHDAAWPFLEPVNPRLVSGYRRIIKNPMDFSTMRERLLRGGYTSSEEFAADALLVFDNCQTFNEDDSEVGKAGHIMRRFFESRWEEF
T2 sequence (P51532 1453-1564 limits assumed): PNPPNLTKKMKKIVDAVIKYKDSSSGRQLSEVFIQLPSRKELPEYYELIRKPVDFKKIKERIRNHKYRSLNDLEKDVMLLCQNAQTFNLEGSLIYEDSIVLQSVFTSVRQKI
T6 sequence (Q9UPN9 whole entry): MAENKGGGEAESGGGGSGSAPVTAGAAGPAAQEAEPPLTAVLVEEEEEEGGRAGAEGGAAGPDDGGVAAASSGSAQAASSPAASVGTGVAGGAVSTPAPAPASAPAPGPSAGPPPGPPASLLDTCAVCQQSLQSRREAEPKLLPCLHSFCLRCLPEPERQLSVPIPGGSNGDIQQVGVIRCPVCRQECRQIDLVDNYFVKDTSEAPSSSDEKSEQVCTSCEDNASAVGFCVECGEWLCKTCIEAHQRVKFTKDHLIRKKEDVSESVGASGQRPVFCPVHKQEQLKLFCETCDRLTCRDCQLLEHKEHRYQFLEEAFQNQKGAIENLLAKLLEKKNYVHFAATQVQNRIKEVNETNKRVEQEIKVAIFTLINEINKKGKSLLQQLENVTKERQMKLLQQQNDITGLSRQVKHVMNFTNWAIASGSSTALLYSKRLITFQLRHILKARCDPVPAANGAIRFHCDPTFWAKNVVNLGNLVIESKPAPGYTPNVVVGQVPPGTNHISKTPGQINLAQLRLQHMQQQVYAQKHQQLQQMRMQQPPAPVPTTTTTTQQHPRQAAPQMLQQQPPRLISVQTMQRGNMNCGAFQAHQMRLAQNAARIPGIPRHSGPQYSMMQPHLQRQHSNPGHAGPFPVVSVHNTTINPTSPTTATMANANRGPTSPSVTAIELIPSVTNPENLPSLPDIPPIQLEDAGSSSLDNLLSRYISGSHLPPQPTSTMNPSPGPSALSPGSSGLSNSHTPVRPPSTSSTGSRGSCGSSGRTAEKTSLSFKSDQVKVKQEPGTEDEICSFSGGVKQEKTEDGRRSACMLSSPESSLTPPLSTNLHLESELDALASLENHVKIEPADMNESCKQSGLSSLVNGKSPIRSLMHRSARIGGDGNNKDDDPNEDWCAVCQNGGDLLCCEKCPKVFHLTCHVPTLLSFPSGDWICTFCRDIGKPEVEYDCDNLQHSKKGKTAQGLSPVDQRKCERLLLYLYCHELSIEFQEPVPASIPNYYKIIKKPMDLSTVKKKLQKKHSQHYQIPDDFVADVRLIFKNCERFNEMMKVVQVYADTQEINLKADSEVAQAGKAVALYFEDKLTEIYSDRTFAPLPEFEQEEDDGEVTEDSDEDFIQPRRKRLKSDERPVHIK
T10 sequence (Q6PL18 980-1092 limits assumed): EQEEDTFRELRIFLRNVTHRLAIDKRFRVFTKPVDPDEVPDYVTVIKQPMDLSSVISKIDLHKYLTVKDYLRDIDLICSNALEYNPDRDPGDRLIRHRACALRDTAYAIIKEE
T11 sequence (Q86U86 653-763 limits assumed): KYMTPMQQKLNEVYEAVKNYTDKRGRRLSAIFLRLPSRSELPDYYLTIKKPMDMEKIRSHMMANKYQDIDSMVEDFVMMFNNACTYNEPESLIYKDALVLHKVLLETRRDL
T9 sequence (Q9ULI0 951-1066 limits assumed): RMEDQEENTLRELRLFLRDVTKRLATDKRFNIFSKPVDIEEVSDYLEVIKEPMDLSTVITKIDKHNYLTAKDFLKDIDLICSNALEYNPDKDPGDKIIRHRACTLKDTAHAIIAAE
T1 sequence (O95696 562-666 limits assumed): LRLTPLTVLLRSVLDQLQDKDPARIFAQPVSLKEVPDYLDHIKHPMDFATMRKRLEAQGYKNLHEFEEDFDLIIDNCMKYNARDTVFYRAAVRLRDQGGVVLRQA
T13 sequence (Q9ULD4 589-693 limits assumed): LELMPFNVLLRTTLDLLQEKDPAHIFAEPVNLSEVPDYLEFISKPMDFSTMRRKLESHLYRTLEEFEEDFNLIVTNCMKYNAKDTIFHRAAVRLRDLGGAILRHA
T3 sequence (Q9UIF8 2060-2164 limits assumed): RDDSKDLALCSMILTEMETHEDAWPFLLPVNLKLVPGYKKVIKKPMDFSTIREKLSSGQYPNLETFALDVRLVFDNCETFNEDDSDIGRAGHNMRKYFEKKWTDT
T5 sequence (Q92830 728-832 limits assumed): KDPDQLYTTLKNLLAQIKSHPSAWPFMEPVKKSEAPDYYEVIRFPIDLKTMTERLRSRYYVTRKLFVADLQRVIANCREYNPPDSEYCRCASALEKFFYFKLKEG
T12 sequence (Q86U86 177-287 limits assumed): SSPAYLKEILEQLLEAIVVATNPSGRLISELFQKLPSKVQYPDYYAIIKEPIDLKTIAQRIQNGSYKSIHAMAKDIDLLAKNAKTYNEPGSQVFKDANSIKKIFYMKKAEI
T7 sequence (P51531 1378-1506 limits assumed): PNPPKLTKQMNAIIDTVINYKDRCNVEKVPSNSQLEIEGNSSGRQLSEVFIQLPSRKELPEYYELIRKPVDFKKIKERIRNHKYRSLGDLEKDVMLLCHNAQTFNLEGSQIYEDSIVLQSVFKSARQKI

As to `CO[C@H]1CC[C@H](n2c([C@@H]3CCCC(=O)N3c3ccc(F)c(F)c3)nc3cc(-c4c(C)noc4C)ccc32)CC1` [CCS1477], in the test on HCC827 cells [1] (absence of EGFR inhibitor (FIG. 3 left)), the “Effect on cell proliferation as single agent” value is on record as “do not affect cell proliferation”. The “Anti-proliferative activity / re-growth in presence of Gefitinib” value in the test on HCC827 cells [1] (in presence of 300 nM Gefitinib (FIG. 3)) was “potentiate the effect of the EGFR inhibitor”. Besides, in the test with NCI-H1975 cells (NCI-H1975, 50 nM osimertinib with 2.0, 0.5 or 0.125 μM co-treatment (FIG. 5)), the Growth long-term entry is recorded as “delayed”. In addition, the “Effect on cell numbers on their own” value with NCI-H1975 cells (NCI-H1975, 2 μM single agent (FIG. 5)) was “no/weak effect on cell numbers”. For the same compound, the “Development of drug resistance / re-growth” value in the test with HCC827 cells [2] (HCC827, combined with 100 nM osimertinib) is “prevent the development of drug resistance”. In addition, in the test with HCC827 cells [2] (HCC827, single agent (1 μM Compound A, 0.2 μM Compound C, 0.2 μM CCS1477, 1 μM FT-6876, 0.2 μM GNE-781)), the “Effect on cell proliferation on their own” value is reported as “do not affect cell proliferation”. The “Response rate to therapy (best average response)” value with NCI-H1975 xenografts (2 mg/kg osimertinib in combination with 20 mg/kg CCS1477) is recorded as “increased response rate”. Also, the “Tumor growth (slopes of mean tumor volume curves) versus osimertinib group” value with NCI-H1975 xenografts (2 mg/kg osimertinib in combination with 20 mg/kg CCS1477, daily, orally) is “significant difference”. Also, the “Response to therapy (best average response)” value in the test with NCI-H1975 xenografts (20 mg/kg CCS1477 alone) is reported as “absence of response”. In the test with NCI-H1975 xenografts (20 mg/kg CCS1477 single agent, daily, orally), the “Tumor growth (slopes of mean tumor volume curves) versus vehicle” value was “No significant difference”. Moreover, the dissociation constant (Kd) – broadly, the constant that tells how readily two partners part at equilibrium – on BRD1 was more than 10 µM; at SMARCA4, more than 10 µM; at BAZ2B, more than 10 µM; on BAZ2A, more than 10 µM; at GCN5L2, more than 10 µM; at TRIM33(PHD, Bromo.), more than 10 µM. Moreover, the Kd on SMARCA2 was more than 10 µM; on FALZ it was 5.5 µM; at ATAD2B, more than 10 µM; on ATAD2A it was more than 10 µM; on PBRM1(5), 3.1 µM; on PBRM1(2), more than 10 µM. This compound gave a Kd at BRPF3 of more than 10 µM.
